Experimental data from patent publication US12077503B2, “Substituted cyclic amides and their use as herbicides” (FMC CORPORATION, priority 2015, dated 2024).

Columns and labels:
Format in all cases: in vivo
[1] = test system: ducksalad (Heteranthera limosa); experiment: Test B flooded paddy test; settings: Heteranthera limosa, 250 g ai/ha, Flood; 0 to 100 scale where 0 is no effect and 100 is complete control; read-out: Ducksalad plant response rating
Outline: (§1)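 Plants at 2-leaf stage flooded to 3 cm above soil, with compounds applied directly to paddy water and that depth maintained. Plants kept in greenhouse 13–15 d. Visual rating versus controls on a 0 (no effect) to 100 (complete control) scale.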

rice (Oryra sativa) = experiment: Test B flooded paddy test; settings: Oryza sativa, 250 g ai/ha, Flood; 0 to 100 scale where 0 is no effect and 100 is complete control; read-out: Rice plant response rating
Outline: as §1

[2] = test system: barnyardgrass (Echinochloa crus-galli); experiment: Test B flooded paddy test; settings: Echinochloa crus-galli, 250 g ai/ha, Flood; 0 to 100 scale where 0 is no effect and 100 is complete control; read-out: Barnyardgrass plant response rating
Outline: as §1

[3] = test system: sedge, umbrella (small-flower umbrella sedge, Cyperus difformis); experiment: Test B flooded paddy test; settings: Cyperus difformis, 250 g ai/ha, Flood; 0 to 100 scale where 0 is no effect and 100 is complete control; read-out: Sedge, Umbrella plant response rating
Outline: as §1

[4] = test system: giant foxtail (Setaria faberii); experiment: Test A postemergence; settings: Setaria faberi, post-emergence, 240 h
Outline: (§2)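 Greenhouse, ~10 d after spray; visual injury vs untreated controls, 0 = no effect, 100 = complete control. Preemergence: directed soil spray over planted seeds. Postemergence: plants 2–10 cm, 1–2 leaf stage. Loam/sand blend. Compound in non-phytotoxic solvent with surfactant.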

[5] = test system: blackgrass (Alopecurus myosuroides); experiment: Test A postemergence; settings: Alopecurus myosuroides, post-emergence, 240 h
Outline: as §2

[6] = test system: ryegrass, Italian (Italian ryegrass, Lolium multiflorum); experiment: Test A postemergence; settings: Lolium multiflorum, post-emergence, 240 h
Outline: as §2

[7] = test system: wheat (Triticum aestivum); experiment: Test A postemergence; settings: Triticum aestivum, post-emergence, 240 h
Outline: as §2

[8] = test system: Galium (catchweed bedstraw, Galium aparine); experiment: Test A postemergence; settings: Galium, post-emergence, 240 h
Outline: as §2

[9] = test system: barnyardgrass (Echinochloa crus-galli); experiment: Test A postemergence; settings: Echinochloa crus-galli, post-emergence, 240 h
Outline: as §2

[10] = test system: pigweed (Amaranthus retroflexus); experiment: Test A postemergence; settings: Amaranthus retroflexus, post-emergence, 240 h
Outline: as §2

[11] = test system: ragweed (common ragweed, Ambrosia elatior); experiment: Test A postemergence; settings: Ambrosia artemisiifolia, post-emergence, 240 h
Outline: as §2

corn (Zea mays) = experiment: Test A postemergence; settings: Zea mays, post-emergence, 240 h
Outline: as §2

Kochia (Kochia scoparia) [12] = experiment: Test A postemergence; settings: Bassia scoparia, post-emergence, 240 h
Outline: as §2

[13] = test system: giant foxtail (Setaria faberii); experiment: Test A preemergence; settings: Setaria faberi, pre-emergence, 240 h, 0 to 100 scale where 0 is no effect and 100 is complete control, read-out: Foxtail, Giant plant response rating
Outline: as §2

[14] = test system: ryegrass, Italian (Italian ryegrass, Lolium multiflorum); experiment: Test A preemergence; settings: Lolium multiflorum, pre-emergence, 240 h, 0 to 100 scale where 0 is no effect and 100 is complete control, read-out: Ryegrass, Italian plant response rating
Outline: as §2

[15] = test system: barnyardgrass (Echinochloa crus-galli); experiment: Test A preemergence; settings: Echinochloa crus-galli, pre-emergence, 240 h, 0 to 100 scale where 0 is no effect and 100 is complete control, read-out: Barnyardgrass plant response rating
Outline: as §2

[16] = test system: pigweed (Amaranthus retroflexus); experiment: Test A preemergence; settings: Amaranthus retroflexus, pre-emergence, 240 h, 0 to 100 scale where 0 is no effect and 100 is complete control, read-out: Pigweed plant response rating
[17] = test system: ragweed (common ragweed, Ambrosia elatior); experiment: Test A preemergence; settings: Ambrosia artemisiifolia, pre-emergence, 240 h, 0 to 100 scale where 0 is no effect and 100 is complete control, read-out: Ragweed plant response rating
Outline: as §2

Kochia (Kochia scoparia) [18] = experiment: Test A preemergence; settings: Bassia scoparia, pre-emergence, 240 h, 0 to 100 scale where 0 is no effect and 100 is complete control, read-out: Kochia plant response rating
Outline: as §2

[19] = 125 g ai/ha, preemergence, approx. 10 d

CSc1ccccc1NC(=O)[C@H]1C(=O)N(C)C[C@@H]1c1ccc(F)c(Oc2ccccc2)c1 [Compound 1142]
60%: pest or weed control at 125 g/ha ([4]; 125 g ai/ha, postemergence, visual injury on 0 to 100 scale (0 no effect, 100 complete control), approx. 10 d, read-out: Foxtail, Giant plant response rating) | pest or weed control at 125 g/ha [16, 19]
30%: pest or weed control at 125 g/ha ([8]; 125 g ai/ha, postemergence, visual injury on 0 to 100 scale (0 no effect, 100 complete control), approx. 10 d, read-out: Galium plant response rating) | pest or weed control at 125 g/ha ([9]; 125 g ai/ha, postemergence, visual injury on 0 to 100 scale (0 no effect, 100 complete control), approx. 10 d, read-out: Barnyardgrass plant response rating) | pest or weed control at 125 g/ha ([10]; 125 g ai/ha, postemergence, visual injury vs untreated controls after approx. 10 d, 0 = no effect, 100 = complete control, read-out: Pigweed plant response rating (0 to 100 scale)) | pest or weed control at 31 g/ha ([13]; 31 g ai/ha, Preemergence) | pest or weed control at 125 g/ha [15, 19]
90%: pest or weed control at 125 g/ha [13, 19]
0%: pest or weed control at 250 g/ha [1] | pest or weed control at 250 g/ha (rice (Oryra sativa)) | pest or weed control at 250 g/ha [2] | pest or weed control at 250 g/ha [3] | pest or weed control at 31 g/ha ([4]; Postemergence, 31 g ai/ha, visual injury after approx. 10 d, 0 to 100 scale, 0 no effect, 100 complete control, read-out: Plant response rating, Foxtail, Giant) | pest or weed control at 125 g/ha ([5]; 125 g ai/ha, postemergence, visual injury on 0 to 100 scale (0 no effect, 100 complete control), approx. 10 d, read-out: Blackgrass plant response rating) | pest or weed control at 31 g/ha ([5]; Postemergence, 31 g ai/ha, visual injury after approx. 10 d, 0 to 100 scale, 0 no effect, 100 complete control, read-out: Plant response rating, Blackgrass) | pest or weed control at 125 g/ha ([6]; 125 g ai/ha, postemergence, visual injury vs untreated controls after approx. 10 d, 0 = no effect, 100 = complete control, read-out: Ryegrass, Italian plant response rating (0 to 100 scale)) | pest or weed control at 31 g/ha ([6]; Postemergence, 31 g ai/ha, visual injury after approx. 10 d, 0 to 100 scale, 0 no effect, 100 complete control, read-out: Plant response rating, Ryegrass, Italian) | plant injury at 125 g/ha ([7]; 125 g ai/ha, postemergence, visual injury vs untreated controls after approx. 10 d, 0 = no effect, 100 = complete control, read-out: Wheat plant response rating (0 to 100 scale)) | plant injury at 31 g/ha ([7]; Postemergence, 31 g ai/ha, visual injury after approx. 10 d, 0 to 100 scale, 0 no effect, 100 complete control, read-out: Plant response rating, Wheat) | pest or weed control at 31 g/ha ([8]; Postemergence, 31 g ai/ha, visual injury after approx. 10 d, 0 to 100 scale, 0 no effect, 100 complete control, read-out: Plant response rating, Galium) | pest or weed control at 31 g/ha ([9]; Postemergence, 31 g ai/ha, visual injury after approx. 10 d, 0 to 100 scale, 0 no effect, 100 complete control, read-out: Plant response rating, Barnyardgrass) | pest or weed control at 31 g/ha ([10]; Postemergence, 31 g ai/ha, visual injury after approx. 10 d, 0 to 100 scale, 0 no effect, 100 complete control, read-out: Plant response rating, Pigweed) | pest or weed control at 125 g/ha ([11]; 125 g ai/ha, postemergence, visual injury vs untreated controls after approx. 10 d, 0 = no effect, 100 = complete control, read-out: Ragweed plant response rating (0 to 100 scale)) | pest or weed control at 31 g/ha ([11]; Postemergence, 31 g ai/ha, visual injury after approx. 10 d, 0 to 100 scale, 0 no effect, 100 complete control, read-out: Plant response rating, Ragweed) | plant injury at 125 g/ha (corn (Zea mays); 125 g ai/ha, postemergence, visual injury on 0 to 100 scale (0 no effect, 100 complete control), approx. 10 d, read-out: Corn plant response rating) | Corn plant response rating (crop injury, 0 = no effect, 100 = complete kill) at 31 g/ha (corn (Zea mays); Postemergence, 31 g ai/ha, visual injury after approx. 10 d, 0 to 100 scale, 0 no effect, 100 complete control) | pest or weed control at 125 g/ha (Kochia (Kochia scoparia) [12]; 125 g ai/ha, postemergence, visual injury on 0 to 100 scale (0 no effect, 100 complete control), approx. 10 d, read-out: Kochia plant response rating) | pest or weed control at 31 g/ha (Kochia (Kochia scoparia) [12]; Postemergence, 31 g ai/ha, visual injury after approx. 10 d, 0 to 100 scale, 0 no effect, 100 complete control, read-out: Plant response rating, Kochia) | pest or weed control at 31 g/ha ([14]; 31 g ai/ha, Preemergence) | pest or weed control at 125 g/ha [14, 19] | pest or weed control at 31 g/ha ([15]; 31 g ai/ha, Preemergence) | pest or weed control at 31 g/ha ([16]; 31 g ai/ha, Preemergence) | pest or weed control at 31 g/ha ([17]; 31 g ai/ha, Preemergence) | pest or weed control at 125 g/ha [17, 19] | pest or weed control at 31 g/ha (Kochia (Kochia scoparia) [18]; 31 g ai/ha, Preemergence) | pest or weed control at 125 g/ha (Kochia (Kochia scoparia) [18]; [19])
